# Organism: Rattus norvegicus
# Experiment: DrugMatrix - Regimen: Daily Repeat
# Assay type: toxicity, organism-based, Sprague-Dawley
# Design: regimen Daily Repeat, gender Male, age 6-8 weeks
# Settings: in vivo, po, route oral GAVAGE, vehicle 100 % WATER; for ABSOLUTE BASOPHIL / ABSOLUTE EOSINOPHIL / ABSOLUTE LYMPHOCYTE / ABSOLUTE MONOCYTE / ABSOLUTE SEGMENTED NEUTROPHIL / BASOPHIL / EOSINOPHIL / ERYTHROCYTE COUNT / HEMATOCRIT / HEMOGLOBIN / LEUKOCYTE COUNT / LYMPHOCYTE / MEAN CORPUSCULAR HEMOGLOBIN / MEAN CORPUSCULAR HEMOGLOBIN CONCENTRATION / MEAN CORPUSCULAR VOLUME / MONOCYTE / NEUTROPHIL / NUCLEATED RED BLOOD CELLS / PLATELET COUNT: tissue Blood; for ALANINE AMINOTRANSFERASE / ALBUMIN / ALKALINE PHOSPHATASE / ASPARTATE AMINOTRANSFERASE / BLOOD UREA NITROGEN / CARBON DIOXIDE / CHLORIDE / CHOLESTEROL / CREATINE PHOSPHOKINASE / CREATININE / GLUCOSE / LACTATE DEHYDROGENASE / LIPASE / PHOSPHORUS / POTASSIUM / SODIUM / TOTAL BILIRUBIN / TOTAL PROTEIN / URIC ACID: tissue Plasma
# [1] = 60 mg/kg, 120 h, dose level Low, time 5 day
# [2] = 1300 mg/kg, 72 h, dose level High, time 3 day
# [3] = 1300 mg/kg, 120 h, dose level High, time 5 day
structure (smiles),measurement,setting,value
CC(C)C[C@H](NC(=O)[C@@H](O)[C@H](N)Cc1ccccc1)C(=O)O [UBENIMEX],ABSOLUTE BASOPHIL,[1],0 CELLS/uL
same,ABSOLUTE EOSINOPHIL,[1],0 CELLS/uL
same,ABSOLUTE LYMPHOCYTE,[1],15131 CELLS/uL
same,ABSOLUTE MONOCYTE,[1],122 CELLS/uL
same,ABSOLUTE SEGMENTED NEUTROPHIL,[1],847 CELLS/uL
same,BASOPHIL,[1],0%
same,EOSINOPHIL,[1],0%
same,ERYTHROCYTE COUNT,[1],5.87 x10E6/uL
same,HEMATOCRIT,[1],36.17%
same,HEMOGLOBIN,[1],14.03 G/DL
same,LEUKOCYTE COUNT,[1],16.1 x10E3/uL
same,LYMPHOCYTE,[1],94.33%
same,MEAN CORPUSCULAR HEMOGLOBIN,[1],23.9 pg
same,MEAN CORPUSCULAR HEMOGLOBIN CONCENTRATION,[1],38.77 G/DL
same,MEAN CORPUSCULAR VOLUME,[1],61.53 fL
same,MONOCYTE,[1],0.67%
same,NEUTROPHIL,[1],5%
same,NUCLEATED RED BLOOD CELLS,[1],0 /100WBC
same,PLATELET COUNT,[1],1187.67 x10E3/uL
same,ALANINE AMINOTRANSFERASE,[1],53.33 u/L
same,ALBUMIN,[1],4.3 G/DL
same,ALKALINE PHOSPHATASE,[1],289.33 u/L
same,ASPARTATE AMINOTRANSFERASE,[1],93.33 u/L
same,BLOOD UREA NITROGEN,[1],16.33 mg/dL
same,CARBON DIOXIDE,[1],23.67 mmol/L
same,CHLORIDE,[1],105 MEQ/L
same,CHOLESTEROL,[1],62.33 mg/dL
same,CREATINE PHOSPHOKINASE,[1],463.33 u/L
same,CREATININE,[1],0.26 mg/dL
same,GLUCOSE,[1],146.33 mg/dL
same,LACTATE DEHYDROGENASE,[1],498.67 u/L
same,LIPASE,[1],9 u/L
same,PHOSPHORUS,[1],11.2 mg/dL
same,POTASSIUM,[1],5.71 MEQ/L
same,SODIUM,[1],144.27 MEQ/L
same,TOTAL BILIRUBIN,[1],0.13 mg/dL
same,TOTAL PROTEIN,[1],6.1 G/DL
same,URIC ACID,[1],1.37 mg/dL
same,ABSOLUTE BASOPHIL,[2],0 CELLS/uL
same,ABSOLUTE EOSINOPHIL,[2],88 CELLS/uL
same,ABSOLUTE LYMPHOCYTE,[2],12244.33 CELLS/uL
same,ABSOLUTE MONOCYTE,[2],144 CELLS/uL
same,ABSOLUTE SEGMENTED NEUTROPHIL,[2],1690.33 CELLS/uL
same,BASOPHIL,[2],0%
same,EOSINOPHIL,[2],0.67%
same,ERYTHROCYTE COUNT,[2],5.72 x10E6/uL
same,HEMATOCRIT,[2],34.83%
same,HEMOGLOBIN,[2],14.07 G/DL
same,LEUKOCYTE COUNT,[2],14.17 x10E3/uL
same,LYMPHOCYTE,[2],86.33%
same,MEAN CORPUSCULAR HEMOGLOBIN,[2],24.63 pg
same,MEAN CORPUSCULAR HEMOGLOBIN CONCENTRATION,[2],40.37 G/DL
same,MEAN CORPUSCULAR VOLUME,[2],60.93 fL
same,MONOCYTE,[2],1%
same,NEUTROPHIL,[2],12%
same,NUCLEATED RED BLOOD CELLS,[2],0 /100WBC
same,PLATELET COUNT,[2],1238.33 x10E3/uL
same,ALANINE AMINOTRANSFERASE,[2],54.33 u/L
same,ALBUMIN,[2],4 G/DL
same,ALKALINE PHOSPHATASE,[2],304.33 u/L
same,ASPARTATE AMINOTRANSFERASE,[2],87 u/L
same,BLOOD UREA NITROGEN,[2],14 mg/dL
same,CARBON DIOXIDE,[2],23.67 mmol/L
same,CHLORIDE,[2],102.33 MEQ/L
same,CHOLESTEROL,[2],63.33 mg/dL
same,CREATINE PHOSPHOKINASE,[2],350.33 u/L
same,CREATININE,[2],0.18 mg/dL
same,GLUCOSE,[2],197.67 mg/dL
same,LACTATE DEHYDROGENASE,[2],237.33 u/L
same,LIPASE,[2],9 u/L
same,PHOSPHORUS,[2],10.53 mg/dL
same,POTASSIUM,[2],5.18 MEQ/L
same,SODIUM,[2],142.5 MEQ/L
same,TOTAL BILIRUBIN,[2],0.17 mg/dL
same,TOTAL PROTEIN,[2],5.7 G/DL
same,URIC ACID,[2],1.27 mg/dL
same,ABSOLUTE BASOPHIL,[3],0 CELLS/uL
same,ABSOLUTE EOSINOPHIL,[3],28.67 CELLS/uL
same,ABSOLUTE LYMPHOCYTE,[3],12669 CELLS/uL
same,ABSOLUTE MONOCYTE,[3],277.67 CELLS/uL
same,ABSOLUTE SEGMENTED NEUTROPHIL,[3],1191.33 CELLS/uL
same,BASOPHIL,[3],0%
same,EOSINOPHIL,[3],0.33%
same,ERYTHROCYTE COUNT,[3],5.82 x10E6/uL
same,HEMATOCRIT,[3],35.73%
same,HEMOGLOBIN,[3],14.33 G/DL
same,LEUKOCYTE COUNT,[3],14.17 x10E3/uL
same,LYMPHOCYTE,[3],89.67%
same,MEAN CORPUSCULAR HEMOGLOBIN,[3],24.6 pg
same,MEAN CORPUSCULAR HEMOGLOBIN CONCENTRATION,[3],40.17 G/DL
same,MEAN CORPUSCULAR VOLUME,[3],61.37 fL
same,MONOCYTE,[3],2%
same,NEUTROPHIL,[3],8%
same,NUCLEATED RED BLOOD CELLS,[3],0 /100WBC
same,PLATELET COUNT,[3],1144.33 x10E3/uL
same,ALANINE AMINOTRANSFERASE,[3],48.33 u/L
same,ALBUMIN,[3],4.23 G/DL
same,ALKALINE PHOSPHATASE,[3],308.67 u/L
same,ASPARTATE AMINOTRANSFERASE,[3],76.67 u/L
same,BLOOD UREA NITROGEN,[3],16.67 mg/dL
same,CARBON DIOXIDE,[3],25.67 mmol/L
same,CHLORIDE,[3],108.67 MEQ/L
same,CHOLESTEROL,[3],58.33 mg/dL
same,CREATINE PHOSPHOKINASE,[3],244.67 u/L
same,CREATININE,[3],0.23 mg/dL
same,GLUCOSE,[3],155.67 mg/dL
same,LACTATE DEHYDROGENASE,[3],228.67 u/L
same,LIPASE,[3],10 u/L
same,PHOSPHORUS,[3],9.27 mg/dL
same,POTASSIUM,[3],6.1 MEQ/L
same,SODIUM,[3],150.27 MEQ/L
same,TOTAL BILIRUBIN,[3],0.2 mg/dL
same,TOTAL PROTEIN,[3],6.03 G/DL
same,URIC ACID,[3],1.53 mg/dL

# Reference: ChEMBL document CHEMBL3885881, “DrugMatrix”
